{"source": "patent US10344060B2", "about": "(priority 2013, dated 2019)"}
{"target": "hNav1.7 (Homo sapiens, UniProt Q15858)", "sequence (Q15858 whole entry)": "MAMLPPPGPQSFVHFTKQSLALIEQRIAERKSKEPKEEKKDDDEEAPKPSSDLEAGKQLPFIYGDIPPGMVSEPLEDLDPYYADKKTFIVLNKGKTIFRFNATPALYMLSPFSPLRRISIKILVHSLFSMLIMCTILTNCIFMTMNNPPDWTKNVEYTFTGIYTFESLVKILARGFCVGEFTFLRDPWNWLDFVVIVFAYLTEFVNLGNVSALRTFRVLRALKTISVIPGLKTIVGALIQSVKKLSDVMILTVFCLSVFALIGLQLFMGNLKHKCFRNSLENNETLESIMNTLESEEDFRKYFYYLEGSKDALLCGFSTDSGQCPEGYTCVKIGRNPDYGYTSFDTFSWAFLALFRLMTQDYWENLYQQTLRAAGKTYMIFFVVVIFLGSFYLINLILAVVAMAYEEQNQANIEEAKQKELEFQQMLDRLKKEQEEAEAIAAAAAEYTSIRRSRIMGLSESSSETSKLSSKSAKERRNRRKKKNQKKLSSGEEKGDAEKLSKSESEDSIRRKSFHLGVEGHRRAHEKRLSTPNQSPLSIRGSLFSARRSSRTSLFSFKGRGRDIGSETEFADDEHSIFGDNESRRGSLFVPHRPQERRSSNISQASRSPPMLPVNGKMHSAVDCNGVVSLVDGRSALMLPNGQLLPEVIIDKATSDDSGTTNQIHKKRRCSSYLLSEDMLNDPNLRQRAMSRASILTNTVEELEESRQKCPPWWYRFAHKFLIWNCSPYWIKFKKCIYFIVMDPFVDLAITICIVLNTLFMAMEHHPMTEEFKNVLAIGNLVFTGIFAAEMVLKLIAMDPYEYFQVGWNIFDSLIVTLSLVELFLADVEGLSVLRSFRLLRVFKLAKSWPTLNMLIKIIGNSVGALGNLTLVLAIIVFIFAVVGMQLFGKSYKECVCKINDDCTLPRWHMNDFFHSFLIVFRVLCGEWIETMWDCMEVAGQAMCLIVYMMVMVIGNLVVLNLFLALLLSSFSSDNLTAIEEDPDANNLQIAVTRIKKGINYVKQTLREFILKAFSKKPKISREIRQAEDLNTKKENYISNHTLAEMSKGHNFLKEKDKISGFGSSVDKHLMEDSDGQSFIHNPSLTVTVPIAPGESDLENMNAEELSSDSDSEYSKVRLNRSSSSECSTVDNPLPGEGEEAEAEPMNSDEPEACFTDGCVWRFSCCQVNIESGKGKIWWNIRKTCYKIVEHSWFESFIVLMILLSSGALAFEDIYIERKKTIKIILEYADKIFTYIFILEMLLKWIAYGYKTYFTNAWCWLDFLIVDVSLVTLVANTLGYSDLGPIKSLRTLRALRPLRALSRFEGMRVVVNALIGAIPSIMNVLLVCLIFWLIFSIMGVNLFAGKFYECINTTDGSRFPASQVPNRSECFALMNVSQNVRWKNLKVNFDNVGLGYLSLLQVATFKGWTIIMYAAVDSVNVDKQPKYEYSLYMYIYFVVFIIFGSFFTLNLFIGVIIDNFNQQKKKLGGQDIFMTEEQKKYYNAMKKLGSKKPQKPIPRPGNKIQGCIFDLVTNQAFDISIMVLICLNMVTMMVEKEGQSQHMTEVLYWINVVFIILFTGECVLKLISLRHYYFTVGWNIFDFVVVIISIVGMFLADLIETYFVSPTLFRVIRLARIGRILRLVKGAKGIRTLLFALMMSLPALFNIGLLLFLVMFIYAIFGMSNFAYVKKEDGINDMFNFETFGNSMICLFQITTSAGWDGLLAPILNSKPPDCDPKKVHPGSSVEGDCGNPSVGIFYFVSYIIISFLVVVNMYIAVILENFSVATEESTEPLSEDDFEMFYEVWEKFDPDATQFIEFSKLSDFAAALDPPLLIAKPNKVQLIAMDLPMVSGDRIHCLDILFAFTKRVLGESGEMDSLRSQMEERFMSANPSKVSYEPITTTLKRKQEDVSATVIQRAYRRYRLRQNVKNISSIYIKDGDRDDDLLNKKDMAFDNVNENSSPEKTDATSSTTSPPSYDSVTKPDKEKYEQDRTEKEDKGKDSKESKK", "assay": "cell-based", "format": "cell-based", "conditions": "ratio of PX tonic IC50 values; Table 11"}
{"smiles": "CCCC[C@@H]1NC(=O)[C@H](Cc2c[nH]c3ccccc23)NC(=O)[C@H](CCCCN)NC(=O)[C@H](CCC(N)=O)NC(=O)[C@@H](NC(=O)[C@H](Cc2ccc(O)cc2)NC(=O)[C@H](CCC)NC(=O)[C@@H](N)CC(C)C)CSSC[C@@H]2NC(=O)[C@@H]3CSSC[C@@H](C(=O)N[C@@H](CCCNC(=N)N)C(=O)N[C@@H](CCCCN)C(=O)N[C@@H](CCC(=O)O)C(=O)N[C@H](C(N)=O)[C@@H](C)CC)NC(=O)[C@H](Cc4c[nH]c5ccccc45)NC(=O)[C@H](CC(C)C)NC(=O)[C@H](CCCCN)NC(=O)[C@H](CSSC[C@H](NC(=O)[C@H]([C@@H](C)O)NC(=O)[C@H](Cc4c[nH]c5ccccc45)NC1=O)C(=O)N[C@@H](CC(=O)O)C(=O)N[C@@H](CO)C(=O)N[C@@H](CCCCN)C(=O)N[C@@H](CCCNC(=N)N)C(=O)N[C@@H](CCCCNC(=O)CCOCCOCCOCCOCCOCCOCCOCCOCCOCCOCCOCCOCCN)C(=O)N3)NC(=O)[C@H](CCCNC(=N)N)NC(=O)[C@H](CC(C)C)NC(=O)CNC(=O)[C@H](CCC(=O)O)NC2=O", "note": "[compound 470]", "Nav1.4/Nav1.7": 34, "Nav1.5/Nav1.7": 372}
{"smiles": "CCCC[C@@H]1NC(=O)[C@H](Cc2c[nH]c3ccccc23)NC(=O)[C@H](CCCCN)NC(=O)[C@H](CCC(N)=O)NC(=O)[C@@H](NC(=O)[C@H](Cc2ccc(O)cc2)NC(=O)[C@H](CCC)NC(=O)[C@@H](N)CC(C)C)CSSC[C@@H]2NC(=O)[C@@H]3CSSC[C@@H](C(=O)N[C@@H](CCCNC(=N)N)C(=O)N[C@@H](CCCCN)C(=O)N[C@@H](CCC(=O)O)C(=O)N[C@H](C(N)=O)[C@@H](C)CC)NC(=O)[C@H](Cc4c[nH]c5ccccc45)NC(=O)[C@H](CC(C)C)NC(=O)[C@H](CCCCN)NC(=O)[C@H](CSSC[C@H](NC(=O)[C@H]([C@@H](C)O)NC(=O)[C@H](Cc4c[nH]c5ccccc45)NC1=O)C(=O)N[C@@H](CC(=O)O)C(=O)N[C@@H](CO)C(=O)N[C@@H](CCCCN)C(=O)N[C@@H](CCCNC(=N)N)C(=O)N[C@@H](C)C(=O)N3)NC(=O)[C@H](CCCNC(=N)N)NC(=O)[C@H](CC(C)C)NC(=O)CNC(=O)[C@H](CCCCNC(=O)CCOCCOCCOCCOCCOCCOCCOCCOCCOCCOCCOCCOCCN)NC2=O", "note": "[compound 471]", "Nav1.4/Nav1.7": 6, "Nav1.5/Nav1.7": 110}
{"smiles": "CCCC[C@@H]1NC(=O)[C@H](Cc2c[nH]c3ccccc23)NC(=O)[C@H](CCCCN)NC(=O)[C@H](CCC(N)=O)NC(=O)[C@@H](NC(=O)[C@H](Cc2ccc(O)cc2)NC(=O)[C@H](CCC)NC(=O)[C@H](N)CC(C)C)CSSC[C@@H]2NC(=O)[C@@H]3CSSC[C@@H](C(=O)N[C@@H](CCCNC(=N)N)C(=O)N[C@@H](CCCCN)C(=O)N[C@@H](CCC(=O)O)C(=O)N[C@H](C(N)=O)[C@@H](C)CC)NC(=O)[C@H](Cc4c[nH]c5ccccc45)NC(=O)[C@H](CC(C)C)NC(=O)[C@H](CCCCN)NC(=O)[C@H](CSSC[C@H](NC(=O)[C@H]([C@@H](C)O)NC(=O)[C@H](Cc4c[nH]c5ccccc45)NC1=O)C(=O)N[C@@H](CC(=O)O)C(=O)N[C@@H](CO)C(=O)N[C@@H](CCCCN)C(=O)N[C@@H](CCCNC(=N)N)C(=O)N[C@@H](CCCCNC(=O)CCOCCOCCOCCOCCOCCOCCOCCOCCOCCOCCOCCOCCN)C(=O)N3)NC(=O)[C@H](CCCNC(=N)N)NC(=O)[C@H](CC(C)C)NC(=O)CNC(=O)[C@H](CCC(=O)O)NC2=O", "note": "[compound 472]", "Nav1.4/Nav1.7": 42, "Nav1.5/Nav1.7": 349}
{"smiles": "CCCC[C@@H]1NC(=O)[C@H](Cc2c[nH]c3ccccc23)NC(=O)[C@H](CCCCN)NC(=O)[C@H](CCC(N)=O)NC(=O)[C@@H](NC(=O)[C@H](Cc2ccc(O)cc2)NC(=O)[C@H](CCC)NC(=O)[C@H](N)CC(C)C)CSSC[C@@H]2NC(=O)[C@@H]3CSSC[C@@H](C(=O)N[C@@H](CCCNC(=N)N)C(=O)N[C@@H](CCCCN)C(=O)N[C@@H](CCC(=O)O)C(=O)N[C@H](C(N)=O)[C@@H](C)CC)NC(=O)[C@H](Cc4c[nH]c5ccccc45)NC(=O)[C@H](CC(C)C)NC(=O)[C@H](CCCCN)NC(=O)[C@H](CSSC[C@H](NC(=O)[C@H]([C@@H](C)O)NC(=O)[C@H](Cc4c[nH]c5ccccc45)NC1=O)C(=O)N[C@@H](CC(=O)O)C(=O)N[C@@H](CO)C(=O)N[C@@H](CCCCN)C(=O)N[C@@H](CCCNC(=N)N)C(=O)N[C@@H](C)C(=O)N3)NC(=O)[C@H](CCCNC(=N)N)NC(=O)[C@H](CC(C)C)NC(=O)CNC(=O)[C@H](CCCCNC(=O)CCOCCOCCOCCOCCOCCOCCOCCOCCOCCOCCOCCOCCN)NC2=O", "note": "[compound 473]", "Nav1.4/Nav1.7": 34, "Nav1.5/Nav1.7": 180}
{"smiles": "CCCC[C@@H]1NC(=O)[C@H](Cc2c[nH]c3ccccc23)NC(=O)[C@H](CCCCN)NC(=O)[C@H](CCC(N)=O)NC(=O)[C@@H](NC(=O)[C@H](Cc2ccc(O)cc2)NC(=O)[C@@H](N)CC#N)CSSC[C@@H]2NC(=O)[C@@H]3CSSC[C@@H](C(=O)N[C@@H](CCCNC(=N)N)C(=O)N[C@@H](CCCCN)C(=O)N[C@H](C(=O)N[C@@H](Cc4c[nH]c5ccccc45)C(N)=O)[C@@H](C)CC)NC(=O)[C@H](Cc4c[nH]c5ccccc45)NC(=O)[C@H](CC(C)C)NC(=O)[C@H](CCCCN)NC(=O)[C@H](CSSC[C@H](NC(=O)[C@H]([C@@H](C)O)NC(=O)[C@H](Cc4c[nH]c5ccccc45)NC1=O)C(=O)N[C@@H](CC(=O)O)C(=O)N[C@@H](CO)C(=O)N[C@@H](CCCCN)C(=O)N[C@@H](CCCNC(=N)N)C(=O)N[C@@H](C)C(=O)N3)NC(=O)[C@H](CCCCNC(=O)CCOCCOCCOCCOCCOCCOCCOCCOCCOCCOCCOCCOCCN)NC(=O)[C@H](CC(C)C)NC(=O)CNC(=O)[C@H](CCC(=O)O)NC2=O", "note": "[compound 476]", "Nav1.4/Nav1.7": 13, "Nav1.5/Nav1.7": 71}
{"smiles": "CCCC[C@@H]1NC(=O)[C@H](Cc2c[nH]c3ccccc23)NC(=O)[C@H](CCCCN)NC(=O)[C@H](CCC(N)=O)NC(=O)[C@@H](NC(=O)[C@H](Cc2ccccc2)NC(=O)[C@@H](N)CC#N)CSSC[C@@H]2NC(=O)[C@@H]3CSSC[C@@H](C(=O)N[C@@H](CCCNC(=N)N)C(=O)N[C@@H](CCCCN)C(=O)N[C@@H](CCC(=O)O)C(=O)N[C@H](C(N)=O)[C@@H](C)CC)NC(=O)[C@H](Cc4c[nH]c5ccccc45)NC(=O)[C@H](CC(C)C)NC(=O)[C@H](CCCCN)NC(=O)[C@H](CSSC[C@H](NC(=O)[C@H]([C@@H](C)O)NC(=O)[C@H](Cc4c[nH]c5ccccc45)NC1=O)C(=O)N[C@@H](CC(=O)O)C(=O)N[C@@H](CO)C(=O)N[C@@H](CCCCN)C(=O)N[C@@H](CCCNC(=N)N)C(=O)N[C@@H](C)C(=O)N3)NC(=O)[C@H](CCCNC(=N)N)NC(=O)[C@H](CC(C)C)NC(=O)CNC(=O)[C@H](CCCCNC(=O)CCOCCOCCOCCOCCOCCOCCOCCOCCOCCOCCOCCOCCN)NC2=O", "note": "[compound 551]", "Nav1.4/Nav1.7": 13}
{"smiles": "CCCC[C@@H]1NC(=O)[C@H](CO)NC(=O)[C@H](CC(=O)O)NC(=O)[C@@H]2CSSC[C@@H]3NC(=O)[C@H](CCCNC(=N)N)NC(=O)[C@H](CC(C)C)NC(=O)CNC(=O)[C@H](CCCCNC(=O)CCOCCOCCOCCOCCOCCOCCOCCOCCOCCOCCOCCOCCN)NC(=O)[C@H](CSSC[C@H](NC(=O)[C@H](Cc4ccc(O)cc4)NC(=O)[C@@H](N)CC#N)C(=O)N[C@@H](CCC(N)=O)C(=O)N[C@@H](CCCCN)C(=O)N[C@@H](Cc4c[nH]c5ccccc45)C(=O)N[C@@H](CCCC)C(=O)N[C@@H](Cc4c[nH]c5ccccc45)C(=O)N[C@@H]([C@@H](C)O)C(=O)N2)NC(=O)[C@H](CSSC[C@@H](C(=O)N[C@@H](CCCNC(=N)N)C(=O)N[C@@H](CCCCN)C(=O)N[C@@H](CCC(=O)O)C(=O)N[C@H](C(N)=O)[C@@H](C)CC)NC(=O)[C@H](Cc2c[nH]c4ccccc24)NC(=O)[C@H](CC(C)C)NC(=O)[C@H](CCCCN)NC3=O)NC(=O)[C@H](C)NC(=O)[C@H](CCCNC(=N)N)NC1=O", "note": "[compound 561]", "Nav1.4/Nav1.7": 33}
{"smiles": "CCCC[C@@H]1NC(=O)[C@H](Cc2c[nH]c3ccccc23)NC(=O)[C@H](CCCCN)NC(=O)[C@H](CCC(N)=O)NC(=O)[C@@H](NC(=O)[C@H](CCCCNC(=O)CCOCCOCCOCCOCCOCCOCCOCCOCCOCCOCCOCCOCCN)NC(=O)[C@@H](N)CC#N)CSSC[C@@H]2NC(=O)[C@@H]3CSSC[C@@H](C(=O)N[C@@H](CCCNC(=N)N)C(=O)N[C@@H](CCCCN)C(=O)N[C@@H](CCC(=O)O)C(=O)N[C@H](C(N)=O)[C@@H](C)CC)NC(=O)[C@H](Cc4c[nH]c5ccccc45)NC(=O)[C@H](CC(C)C)NC(=O)[C@H](CCCCN)NC(=O)[C@H](CSSC[C@H](NC(=O)[C@H]([C@@H](C)O)NC(=O)[C@H](Cc4c[nH]c5ccccc45)NC1=O)C(=O)N[C@@H](CC(=O)O)C(=O)N[C@@H](CO)C(=O)N[C@@H](CCCCN)C(=O)N[C@@H](CCCNC(=N)N)C(=O)N[C@@H](C)C(=O)N3)NC(=O)[C@H](CCCNC(=N)N)NC(=O)[C@H](CC(C)C)NC(=O)CNC(=O)[C@H](CCC(=O)O)NC2=O", "note": "[compound 563]", "Nav1.4/Nav1.7": 126}
{"smiles": "CCCC[C@@H]1NC(=O)[C@H](Cc2c[nH]c3ccccc23)NC(=O)[C@H](CCCCN)NC(=O)[C@H](CCC(N)=O)NC(=O)[C@@H](NC(=O)[C@H](Cc2ccc(O)cc2)NC(=O)[C@@H](N)CC#N)CSSC[C@@H]2NC(=O)[C@@H]3CSSC[C@@H](C(=O)N[C@@H](CCCNC(=N)N)C(=O)N[C@@H](CCCCN)C(=O)N[C@@H](CCC(=O)O)C(=O)N[C@H](C(N)=O)[C@@H](C)CC)NC(=O)[C@H](Cc4c[nH]c5ccccc45)NC(=O)[C@H](CC(C)C)NC(=O)[C@H](CCCCN)NC(=O)[C@H](CSSC[C@H](NC(=O)[C@H]([C@@H](C)O)NC(=O)[C@H](Cc4c[nH]c5ccccc45)NC1=O)C(=O)N[C@@H](CC(=O)O)C(=O)N[C@@H](CCCCNC(=O)CCOCCOCCOCCOCCOCCOCCOCCOCCOCCOCCOCCOCCN)C(=O)N[C@@H](CCCCN)C(=O)N[C@@H](CCCNC(=N)N)C(=O)N[C@@H](C)C(=O)N3)NC(=O)[C@H](CCCNC(=N)N)NC(=O)[C@H](CC(C)C)NC(=O)CNC(=O)[C@H](CCC(=O)O)NC2=O", "note": "[compound 565]", "Nav1.4/Nav1.7": 75}
